Data reported in ChEMBL document CHEMBL1128323, “Antifungal agents. 9. 3-Aryl-4-[alpha-(1H-imidazol-1-yl)arylmethyl]pyrroles: a new class of potent anti-Candida agents” (1995).
Converted amounts (≈) assume the structure as drawn. “And” between values parts separate entries of the source, which are not always exact repeats. Equal values may be shown once.

Experiments:
Type in all cases: functional
Candida [1] = test: Inhibitory activity against Candida. species (40 clinical isolates), determined at pH-5.8
Candida albicans [2] = test: 50% inhibitory activity against Candida albicans (40 clinical isolates) determined at pH-5.8
Candida [3] = test: Inhibitory activity against the Candida. species. (40 clinical isolates) was determined at pH-7.2
Candida [4] = test: The compound was tested for percent resistance against all Candida. species (40 clinical isolates) at 256 ug/mL (pH=7.2), activity is expressed as R%.
Candida albicans [5] = test: Resistance against Candida. albicans (40 clinical isolates) at 256 ug/mL (pH=7.2), activity is expressed as R%.
Candida albicans [6] = test: Inhibitory activity against Candida albicans (40 clinical isolates), determined at pH-7.2
Candida albicans [7] = test: Inhibitory activity against the Candida albicans (40 clinical isolates), determined at pH-7.2
Candida albicans [8] = test: Inhibitory activity against Candida albicans (40 clinical isolates), determined at pH-5.8
Candida [9] = test: The compound was tested for percent resistance against all Candida. species (40 clinical isolates) at 256 ug/mL (pH=5.8), activity is expressed as R%.
Candida albicans [10] = test: Percent resistance against Candida albicans (40 clinical isolates) at 256 micro g/mL (pH=5.8), activity is expressed as R%.
Candida [11] = test: 50% inhibitory activity against the Candida. species (40 clinical isolates) was determined at pH-7.2
Candida [12] = test: 90% inhibitory activity against the Candida. species (40 clinical isolates) was determined at pH-7.2
Candida albicans [13] = test: Inhibitory activity against the Candida albicans (40 clinical isolates), determined at pH-5.8
Candida [14] = test: Inhibitory activity against Candida. species. (40 clinical isolates), determined at pH-5.8
Candida albicans [15] = test: 50% inhibitory activity against Candida albicans (40 clinical isolates) determined at pH-7.2
Candida [16] = test: Percent resistance against all Candida. species (40 clinical isolates) at 256 micro g/mL (pH=7.2), activity is expressed as R%.
Candida [17] = test: Inhibitory activity against Candida. species. (40 clinical isolates), determined at pH-7.2
Candida [18] = test: Resistance against all Candida. species (40 clinical isolates) at 256 micro g/mL (pH=5.8). Activity is expressed as R%.
Oryctolagus cuniculus [19] = test: Topical comparison with bifonazole in white male rabbits at 1% concentration of compound
Oryctolagus cuniculus [20] = test: Topical comparison with bifonazole in white male rabbits by treatment twice daily on 15 consecutive days starting 48 hr after inoculation.
Candida [21] = test: 90% inhibitory activity against Candida. species (40 clinical isolates) determined at pH-7.2
Candida albicans [22] = test: The compound was tested for percent resistance against Candida. albicans (40 clinical isolates) at 256 micro g/mL (pH=7.2), activity is expressed as R%.
Candida [23] = test: The compound was tested for percent resistance against all Candida. species (40 clinical isolates) at 256 micro g/mL (pH=5.8), activity is expressed as R%.
[24] = Candida albicans, read-out: MIC50

Compound	MIC50 (Candida [1])	MIC90 (Candida [1])	MIC50 (Candida albicans [2])	R (Candida albicans [5])	MIC (Candida albicans [6])	MIC90 (Candida albicans [7])	MIC (Candida albicans [8])	R (Candida albicans [10])	MIC50 (Candida [11])	MIC90 (Candida [12])	MIC90 (Candida albicans [13])	MIC (Candida [14])	MIC50 (Candida albicans [15]; [24])	R (Candida [16])	MIC (Candida [17])	R (Candida [18])	further results
c1ccc(-c2c[nH]cc2C(c2ccccc2)n2ccnc2)cc1 (stereo unspecified)	128 µg/mL (≈ 428 µM)	128 µg/mL (≈ 428 µM)	32 µg/mL (≈ 107 µM)	2.7%	> 35.4 µg/mL	64 µg/mL (≈ 214 µM)	53.9 µg/mL (≈ 180 µM)	0%	> 256 µg/mL	> 256 µg/mL	128 µg/mL (≈ 428 µM)	88 µg/mL (≈ 294 µM)	32 µg/mL (≈ 107 µM)	–	–	–	MIC (Candida [3]): > 396 µg/mL; R (Candida [4]): 75%; R (Candida [9]): 0%
Fc1ccc(C(c2c[nH]cc2-c2ccccc2)n2ccnc2)cc1 (stereo unspecified)	64 µg/mL (≈ 202 µM)	128 µg/mL (≈ 403 µM)	–	0%	55.1 µg/mL (≈ 174 µM)	64 µg/mL (≈ 202 µM)	71.2 µg/mL (≈ 224 µM)	0%	64 µg/mL (≈ 202 µM)	128 µg/mL (≈ 403 µM)	128 µg/mL (≈ 403 µM)	99.5 µg/mL (≈ 314 µM)	32 µg/mL (≈ 101 µM)	0%	74.5 µg/mL (≈ 235 µM)	0%	MIC50 (Candida albicans [15]): 64 µg/mL (≈ 202 µM)
Cc1ccc(C(c2c[nH]cc2-c2ccccc2)n2ccnc2)cc1 (stereo unspecified)	64 µg/mL (≈ 204 µM)	256 µg/mL (≈ 817 µM)	–	0%	48.4 µg/mL (≈ 154 µM)	64 µg/mL (≈ 204 µM)	133 µg/mL (≈ 425 µM)	0%	64 µg/mL (≈ 204 µM)	64 µg/mL (≈ 204 µM)	256 µg/mL (≈ 817 µM)	71 µg/mL (≈ 227 µM)	32 µg/mL (≈ 102 µM)	0%	51.6 µg/mL (≈ 165 µM)	0%	MIC50 (Candida albicans [15]): 64 µg/mL (≈ 204 µM)
O=[N+]([O-])c1ccc(C(c2c[nH]cc2-c2ccccc2)n2ccnc2)cc1 (stereo unspecified)	128 µg/mL (≈ 372 µM)	> 256 µg/mL	8 µg/mL (≈ 23.2 µM)	0%	5.18 µg/mL (≈ 15 µM)	64 µg/mL (≈ 186 µM)	56.7 µg/mL (≈ 165 µM)	0%	256 µg/mL (≈ 743 µM)	256 µg/mL (≈ 743 µM)	128 µg/mL (≈ 372 µM)	182 µg/mL (≈ 529 µM)	8 µg/mL (≈ 23.2 µM)	20%	> 192 µg/mL	0%	–
Nc1ccc(C(c2c[nH]cc2-c2ccccc2)n2ccnc2)cc1 (stereo unspecified)	256 µg/mL (≈ 814 µM)	> 256 µg/mL	128 µg/mL (≈ 407 µM)	0%	162 µg/mL (≈ 515 µM)	128 µg/mL (≈ 407 µM)	142 µg/mL (≈ 453 µM)	0%	256 µg/mL (≈ 814 µM)	> 256 µg/mL	256 µg/mL (≈ 814 µM)	> 327 µg/mL	128 µg/mL (≈ 407 µM)	80%	> 331 µg/mL	80%	–
Clc1ccc(C(c2c[nH]cc2-c2ccccc2)n2ccnc2)cc1 (stereo unspecified)	64 µg/mL (≈ 192 µM)	64 µg/mL (≈ 192 µM)	–	0%	21.3 µg/mL (≈ 63.8 µM)	128 µg/mL (≈ 383 µM)	47.3 µg/mL (≈ 142 µM)	0%	32 µg/mL (≈ 95.9 µM)	128 µg/mL (≈ 383 µM)	64 µg/mL (≈ 192 µM)	51.4 µg/mL (≈ 154 µM)	–	0%	40 µg/mL (≈ 120 µM)	0%	–
Clc1ccc(-c2c[nH]cc2C(c2ccccc2)n2ccnc2)cc1 (stereo unspecified)	32 µg/mL (≈ 95.9 µM)	32 µg/mL (≈ 95.9 µM)	16 µg/mL (≈ 47.9 µM)	0%	6.4 µg/mL (≈ 19.2 µM)	16 µg/mL (≈ 47.9 µM)	12.8 µg/mL (≈ 38.3 µM)	0%	32 µg/mL (≈ 95.9 µM)	–	32 µg/mL (≈ 95.9 µM)	44.4 µg/mL (≈ 133 µM)	2 µg/mL (≈ 5.99 µM)	0%	46.5 µg/mL (≈ 139 µM)	0%	Percentage of animals (Oryctolagus cuniculus [19]): 50% and 83%; No. of animals (Oryctolagus cuniculus [20]): 33%; MIC90 (Candida [21]): 128 µg/mL (≈ 383 µM)
c1ccc(-c2ccc(C(c3ccccc3)n3ccnc3)cc2)cc1 (stereo unspecified) [BIFONAZOLE]	8 µg/mL (≈ 25.8 µM)	8 µg/mL (≈ 25.8 µM)	4 µg/mL (≈ 12.9 µM)	–	4.1 µg/mL (≈ 13.2 µM)	16 µg/mL (≈ 51.5 µM)	3.72 µg/mL (≈ 12 µM)	0%	4 µg/mL (≈ 12.9 µM)	16 µg/mL (≈ 51.5 µM)	16 µg/mL (≈ 51.5 µM)	7.5 µg/mL (≈ 24.2 µM)	4 µg/mL (≈ 12.9 µM)	0%	4.5 µg/mL (≈ 14.5 µM)	0%	Percentage of animals (Oryctolagus cuniculus [19]): 3% and 6% and 10%; R (Candida albicans [22]): 0%
CC(=O)N1CCN(c2ccc(OC[C@H]3CO[C@](Cn4ccnc4)(c4ccc(Cl)cc4Cl)O3)cc2)CC1 [KETOCONAZOLE]	4 µg/mL (≈ 7.53 µM)	32 µg/mL (≈ 60.2 µM)	0.5 µg/mL (≈ 0.941 µM)	–	8.3 µg/mL (≈ 15.6 µM)	32 µg/mL (≈ 60.2 µM)	8.6 µg/mL (≈ 16.2 µM)	0%	4 µg/mL (≈ 7.53 µM)	32 µg/mL (≈ 60.2 µM)	32 µg/mL (≈ 60.2 µM)	16.9 µg/mL (≈ 31.8 µM)	2 µg/mL (≈ 3.76 µM)	0%	8.1 µg/mL (≈ 15.2 µM)	–	R (Candida albicans [22]): 0%; Fungicidal (Candida [23]): 0%
Clc1ccc(COC(Cn2ccnc2)c2ccc(Cl)cc2Cl)c(Cl)c1 (stereo unspecified) [MICONAZOLE]	2 µg/mL (≈ 4.81 µM)	32 µg/mL (≈ 76.9 µM)	0.5 µg/mL (≈ 1.2 µM)	0%	6.1 µg/mL (≈ 14.7 µM)	32 µg/mL (≈ 76.9 µM)	5.9 µg/mL (≈ 14.2 µM)	0%	16 µg/mL (≈ 38.4 µM)	–	32 µg/mL (≈ 76.9 µM)	13 µg/mL (≈ 31.2 µM)	2 µg/mL (≈ 4.81 µM)	0%	13 µg/mL (≈ 31.2 µM)	0%	MIC90 (Candida [21]): 32 µg/mL (≈ 76.9 µM)
